Patent publication US10184129B2, “Method and compositions to promote plant growth in metal contaminated environments” (The Regents of the University of California, priority 2011, dated 2019)
“Also recorded” adds a separate entry of the source.

Tested on: Col-0 wt and als7-1/swa2-2 roots
Assay: Root growth of seedlings in a hydroponic environment supplemented with AlCl3 (pH 4.2)
Format: in vivo, Arabidopsis
Settings: for increase in root growth: pH 4.2
Procedure: Seedlings of Col-0 wt and als7-1/swa2-2 were grown for 7 d hydroponically either in the absence or presence 25 μM AlCl3 (pH 4.2), after which root tissue was collected for analysis of spermine content by HPLC. […] Seedlings of Col-0 wt and als7-1/swa2-2 were grown in a hydroponic environment either in the absence or presence of 25 μM AlCl3 (pH 4.2) with or without 25 μM spermine. After 7 d growth, root length was measured for all treatments, with mean±SE values determined from 30 roots of each. […] Seedlings of Col-0 wt were grown either in the absence or presence of 1.5 mM DEMO in a hydroponic environment supplemented with increasing concentrations of AlCl3 (pH 4.2). After 7 d, root length was measured for all treatments, with mean±SE values determined from 30 roots of each. […] Seedlings of Col-0 wt were grown hydroponically either in the absence or presence of 25 μM spermine for 5 d after which the samples were transferred to a solution with or without 25 μM AlCl3 (pH 4.2) containing either 0 or 25 μM spermine. Following 2 d of growth, root tissue was collected and treated for measurement of Al content by ICP-OES.
For all growth experiments performed, Col-0 wt and mutant seeds were surface-sterilized with household bleach and cold stratified for 4 d at 4° C. in the dark for synchronization of germination. Seeds were subsequently suspended in 0.15% (w/v) agarose and for planting on either soaked gel plates or hydroponic plates. Further description of the growth experiments can be found in Larsen, P. B., Geisler, M. J. B., Jones, C. A., Williams, K. M., and Cancel, J. D. (2005), ALS3 encodes a phloem-localized ABC transporter-like protein that is required for aluminum tolerance in Arabidopsis. Plant J. 41, 353-63. All growth analyses were done in a Percival 136LLVL plant growth chamber under a 24 hr light cycle at 20° C. Adult plants were grown in soil under a 24 hr light cycle at 20° C. in a plant growth room supplemented with Sylvania Gro-Lite® fluorescent bulbs.

`NCCCNCCCCNCCCN` [spermine] was tested, and the “root growth in the presence of Al (in words)” value (Col-0 wt and als7-1/swa2-2 seedlings, 25 μM spermine, 25 μM AlCl3 pH 4.2, hydroponic, 7 d) was “increases root growth; also recorded: substantial increase in root growth”, the “increase in root growth” value (Col-0 wt, 25 μM spermine, 25 or 50 μM AlCl3, hydroponic, 7 d) was ≥ 6 fold and the “root growth compared to untreated controls (in words)” value (Col-0 wt, spermine added, 25 or 50 μM AlCl3, hydroponic) was “remained significantly inhibited”. For the same compound, the “increase in root growth” value (als7-1/swa2-2, 25 μM spermine, 25 or 50 μM AlCl3, hydroponic, 7 d) was ≥ 6 fold and the “root growth in the presence of Al (in words)” value (als7-1/swa2-2, spermine added, 25 or 50 μM AlCl3, hydroponic) was “almost full restoration”.
